Results on 4 molecules are retold here after publication PMC10004634 (PLOS ONE, 2023).

Read-outs that look alike come from different tables or passages of the source.

Holding throughout (test): biochemical
Parameters in all cases: KINOMEscan scanMAX competition binding, DNA-tagged kinases, qPCR read-out, percent control at 300 nM
(Real-time PCR tracks product formation cycle by cycle.)

The target of assay [1] is T1, RIOK1 (Homo sapiens, UniProt Q9BRS2).
T1 sequence (Q9BRS2 1-568): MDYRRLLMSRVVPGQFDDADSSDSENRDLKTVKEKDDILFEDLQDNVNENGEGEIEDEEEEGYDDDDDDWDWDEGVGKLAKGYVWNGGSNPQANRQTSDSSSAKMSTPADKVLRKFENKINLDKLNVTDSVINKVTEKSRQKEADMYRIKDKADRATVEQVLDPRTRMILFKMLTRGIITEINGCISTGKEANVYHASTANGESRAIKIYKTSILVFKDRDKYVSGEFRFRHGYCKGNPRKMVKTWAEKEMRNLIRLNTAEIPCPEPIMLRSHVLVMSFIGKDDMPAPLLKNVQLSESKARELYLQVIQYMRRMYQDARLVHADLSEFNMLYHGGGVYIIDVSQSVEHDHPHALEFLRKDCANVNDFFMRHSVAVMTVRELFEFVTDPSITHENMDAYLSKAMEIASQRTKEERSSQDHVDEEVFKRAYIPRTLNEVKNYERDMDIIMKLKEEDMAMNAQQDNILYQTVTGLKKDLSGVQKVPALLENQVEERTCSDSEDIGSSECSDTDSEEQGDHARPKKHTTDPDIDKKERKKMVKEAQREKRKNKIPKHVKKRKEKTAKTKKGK

Assay [2] addresses T2, GAK (Homo sapiens, UniProt O14976).
T2 sequence (O14976 1-1311): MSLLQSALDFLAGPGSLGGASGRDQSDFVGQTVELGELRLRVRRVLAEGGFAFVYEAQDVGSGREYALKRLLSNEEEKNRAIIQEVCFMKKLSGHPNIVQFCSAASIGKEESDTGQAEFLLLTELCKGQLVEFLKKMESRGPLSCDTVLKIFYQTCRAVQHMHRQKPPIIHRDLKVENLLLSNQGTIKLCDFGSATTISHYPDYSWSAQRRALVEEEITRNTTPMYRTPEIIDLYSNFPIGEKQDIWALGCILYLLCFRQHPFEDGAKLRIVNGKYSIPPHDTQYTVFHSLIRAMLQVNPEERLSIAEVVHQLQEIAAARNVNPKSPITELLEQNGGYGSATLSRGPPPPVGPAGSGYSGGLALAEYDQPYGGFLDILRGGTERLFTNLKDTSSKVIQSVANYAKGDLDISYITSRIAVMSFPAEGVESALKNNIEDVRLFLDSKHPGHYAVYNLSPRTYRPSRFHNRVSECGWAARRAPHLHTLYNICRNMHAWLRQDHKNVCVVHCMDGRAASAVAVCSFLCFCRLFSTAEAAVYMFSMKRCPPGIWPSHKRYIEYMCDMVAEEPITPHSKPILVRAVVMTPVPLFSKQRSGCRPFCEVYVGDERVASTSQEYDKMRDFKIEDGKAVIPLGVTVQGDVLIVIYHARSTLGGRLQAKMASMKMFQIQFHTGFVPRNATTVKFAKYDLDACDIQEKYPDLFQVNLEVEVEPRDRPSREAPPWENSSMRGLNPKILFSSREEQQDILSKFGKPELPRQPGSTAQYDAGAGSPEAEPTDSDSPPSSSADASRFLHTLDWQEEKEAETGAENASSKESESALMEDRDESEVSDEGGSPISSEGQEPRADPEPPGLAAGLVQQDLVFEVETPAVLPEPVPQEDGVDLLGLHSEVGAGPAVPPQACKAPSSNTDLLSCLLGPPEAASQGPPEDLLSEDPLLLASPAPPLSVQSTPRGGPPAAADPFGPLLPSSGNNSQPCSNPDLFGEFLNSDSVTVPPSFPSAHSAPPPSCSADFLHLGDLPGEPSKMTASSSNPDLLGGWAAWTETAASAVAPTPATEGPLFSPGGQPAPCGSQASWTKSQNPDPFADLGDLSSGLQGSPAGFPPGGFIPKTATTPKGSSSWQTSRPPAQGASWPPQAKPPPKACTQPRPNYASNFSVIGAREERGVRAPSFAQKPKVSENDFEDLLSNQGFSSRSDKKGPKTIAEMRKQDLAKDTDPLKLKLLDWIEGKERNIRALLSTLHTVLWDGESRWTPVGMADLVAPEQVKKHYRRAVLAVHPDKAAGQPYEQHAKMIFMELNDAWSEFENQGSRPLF

Assay [3] deals with STK16 (Homo sapiens, UniProt O75716).
Chain of STK16 (O75716 whole entry): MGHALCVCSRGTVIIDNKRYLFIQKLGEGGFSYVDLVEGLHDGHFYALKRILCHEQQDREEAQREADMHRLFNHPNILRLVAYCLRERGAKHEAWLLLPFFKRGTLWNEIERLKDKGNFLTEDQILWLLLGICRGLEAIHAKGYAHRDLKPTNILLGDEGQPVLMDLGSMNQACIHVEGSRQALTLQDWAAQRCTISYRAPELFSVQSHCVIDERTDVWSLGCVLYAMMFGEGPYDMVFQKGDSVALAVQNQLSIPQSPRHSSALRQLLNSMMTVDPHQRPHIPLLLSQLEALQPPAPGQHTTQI
The target in assay [4] is KIT(V559D,T670I) (Homo sapiens, UniProt P10721, T670I/V559D).
Chain of KIT(V559D,T670I) (P10721 whole entry V559D/T670I): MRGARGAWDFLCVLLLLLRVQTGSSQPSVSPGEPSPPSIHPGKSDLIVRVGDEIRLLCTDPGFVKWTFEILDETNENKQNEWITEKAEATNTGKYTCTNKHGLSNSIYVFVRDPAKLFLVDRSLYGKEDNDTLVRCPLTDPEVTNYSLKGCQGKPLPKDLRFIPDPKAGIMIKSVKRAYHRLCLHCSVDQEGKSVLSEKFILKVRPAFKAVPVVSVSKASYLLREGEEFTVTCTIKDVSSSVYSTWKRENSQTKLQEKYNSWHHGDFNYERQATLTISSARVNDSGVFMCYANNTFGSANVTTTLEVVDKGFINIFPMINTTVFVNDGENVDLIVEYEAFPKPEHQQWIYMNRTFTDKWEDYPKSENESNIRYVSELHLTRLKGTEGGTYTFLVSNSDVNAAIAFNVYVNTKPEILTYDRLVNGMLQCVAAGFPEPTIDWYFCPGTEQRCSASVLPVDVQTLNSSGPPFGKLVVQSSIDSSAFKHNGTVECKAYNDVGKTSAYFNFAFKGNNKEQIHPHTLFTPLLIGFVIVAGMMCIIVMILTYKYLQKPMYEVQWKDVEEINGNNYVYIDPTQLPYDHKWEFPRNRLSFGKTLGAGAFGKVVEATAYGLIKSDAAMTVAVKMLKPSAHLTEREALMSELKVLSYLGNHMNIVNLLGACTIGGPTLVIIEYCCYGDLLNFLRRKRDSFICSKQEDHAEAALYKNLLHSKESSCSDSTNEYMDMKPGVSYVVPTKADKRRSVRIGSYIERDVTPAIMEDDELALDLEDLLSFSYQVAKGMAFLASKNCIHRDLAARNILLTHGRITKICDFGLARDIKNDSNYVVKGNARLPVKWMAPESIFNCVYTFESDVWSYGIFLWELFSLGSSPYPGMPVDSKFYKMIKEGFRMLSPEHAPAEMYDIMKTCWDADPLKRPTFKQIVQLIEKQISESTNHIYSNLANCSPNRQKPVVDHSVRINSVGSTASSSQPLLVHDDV
The target in assay [5] is TIE1 (Homo sapiens, UniProt P35590).
Chain of TIE1 (P35590 whole entry): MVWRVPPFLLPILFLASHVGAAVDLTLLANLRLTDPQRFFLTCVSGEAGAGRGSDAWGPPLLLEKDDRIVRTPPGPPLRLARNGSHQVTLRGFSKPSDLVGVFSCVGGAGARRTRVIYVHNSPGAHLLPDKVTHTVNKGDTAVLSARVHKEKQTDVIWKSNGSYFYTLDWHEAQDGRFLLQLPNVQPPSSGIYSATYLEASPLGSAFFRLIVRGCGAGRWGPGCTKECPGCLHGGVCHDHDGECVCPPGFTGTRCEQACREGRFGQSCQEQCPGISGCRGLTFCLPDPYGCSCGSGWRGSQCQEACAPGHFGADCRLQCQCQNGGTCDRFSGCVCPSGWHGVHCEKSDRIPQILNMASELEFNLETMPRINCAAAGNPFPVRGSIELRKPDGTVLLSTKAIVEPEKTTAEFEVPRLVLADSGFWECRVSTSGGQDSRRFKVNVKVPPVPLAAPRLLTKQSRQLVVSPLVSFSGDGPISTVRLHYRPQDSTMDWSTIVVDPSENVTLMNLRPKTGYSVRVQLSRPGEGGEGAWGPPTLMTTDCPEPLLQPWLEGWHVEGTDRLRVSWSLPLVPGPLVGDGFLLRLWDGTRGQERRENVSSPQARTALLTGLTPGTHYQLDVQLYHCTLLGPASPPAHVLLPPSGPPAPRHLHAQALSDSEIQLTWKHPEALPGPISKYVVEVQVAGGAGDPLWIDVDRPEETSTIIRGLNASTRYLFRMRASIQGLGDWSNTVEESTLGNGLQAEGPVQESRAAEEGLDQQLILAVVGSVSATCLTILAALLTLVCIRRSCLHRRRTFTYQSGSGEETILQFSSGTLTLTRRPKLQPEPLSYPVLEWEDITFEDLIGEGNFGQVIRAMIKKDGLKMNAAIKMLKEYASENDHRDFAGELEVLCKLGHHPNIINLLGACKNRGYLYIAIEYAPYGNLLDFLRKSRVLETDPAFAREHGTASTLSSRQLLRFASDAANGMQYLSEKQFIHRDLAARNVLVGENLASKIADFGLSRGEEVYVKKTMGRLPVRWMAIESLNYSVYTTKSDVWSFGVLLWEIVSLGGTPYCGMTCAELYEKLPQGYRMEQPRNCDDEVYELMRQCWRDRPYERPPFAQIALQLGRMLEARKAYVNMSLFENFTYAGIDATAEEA
Assay [6] addresses CAMK1G (Homo sapiens, UniProt Q96NX5).
The mark [7] stands for this setting: read-out: Percent control / Zanubrutinib.
Where [8] appears, read: read-out: Percent control / Tirabrutinib.
Setting [9] is: read-out: Percent control / Ibrutinib.
[10] abbreviates: read-out: Percent control / Acalabrutinib.

Chain of CAMK1G (Q96NX5 whole entry): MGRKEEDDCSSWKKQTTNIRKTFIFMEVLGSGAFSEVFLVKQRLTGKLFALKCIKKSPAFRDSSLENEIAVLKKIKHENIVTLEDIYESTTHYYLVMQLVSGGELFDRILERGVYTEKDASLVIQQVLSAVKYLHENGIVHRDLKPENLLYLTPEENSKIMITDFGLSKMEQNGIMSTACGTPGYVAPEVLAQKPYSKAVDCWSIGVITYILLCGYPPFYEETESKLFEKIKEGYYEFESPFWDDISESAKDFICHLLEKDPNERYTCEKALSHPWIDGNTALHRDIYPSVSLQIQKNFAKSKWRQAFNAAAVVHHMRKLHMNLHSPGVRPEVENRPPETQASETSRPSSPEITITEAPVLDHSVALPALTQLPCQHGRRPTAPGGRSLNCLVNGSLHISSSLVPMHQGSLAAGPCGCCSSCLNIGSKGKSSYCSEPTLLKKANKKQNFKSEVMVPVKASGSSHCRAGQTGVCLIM

As for `C=CC(=O)N1CCC([C@@H]2CCNc3c(C(N)=O)c(-c4ccc(Oc5ccccc5)cc4)nn32)CC1` [Zanubrutinib], the remaining binding at 0.3 µM is 75% in assay [1] (setting [7]); 87% in assay [2] (setting [7]); 100% in assay [3] (setting [7]); 62% in assay [4] (setting [7]); 98% in assay [5] (setting [7]); 96% in assay [6] (setting [7]).

For the molecule `CC#CC(=O)N1CC[C@@H](n2c(=O)n(-c3ccc(Oc4ccccc4)cc3)c3c(N)ncnc32)C1` [Tirabrutinib], the remaining binding at 0.3 µM in assay [1] (setting [8]) amounted to 79%; in assay [2] (setting [8]) it was 95%; in assay [3] (setting [8]) it was 82%; in assay [4] (setting [8]) it was 98%; in assay [5] (setting [8]), 90%; in assay [6] (setting [8]), 98%.

With `C=CC(=O)N1CCC[C@@H](n2nc(-c3ccc(Oc4ccccc4)cc3)c3c(N)ncnc32)C1` [Ibrutinib], the results for the remaining binding at 0.3 µM in assay [1] (setting [9]), in assay [3] (setting [9]) and in assay [5] (setting [9]) were 51%, 98% and 75%, respectively.

For `CC#CC(=O)N1CCC[C@H]1c1nc(-c2ccc(C(=O)Nc3ccccn3)cc2)c2c(N)nccn12` [Acalabrutinib], the remaining binding at 0.3 µM was 72% in assay [1] (setting [10]); 92% in assay [2] (setting [10]); 86% in assay [3] (setting [10]); 78% in assay [4] (setting [10]); 86% in assay [5] (setting [10]); 97% in assay [6] (setting [10]).
